This passage reports IC50 results from patent US11274084B2, “3-aryl-4-amido-bicyclic [4,5,0] hydroxamic acids as HDAC inhibitors” (Valo Health, Inc., priority 2015, dated 2022).

The target in the assay is T1, HDAC6 (Homo sapiens, UniProt Q9UBN7).
T1 construct: Full length human recombinant HDAC6 protein; made in house
T1 sequence (Q9UBN7 1-1215): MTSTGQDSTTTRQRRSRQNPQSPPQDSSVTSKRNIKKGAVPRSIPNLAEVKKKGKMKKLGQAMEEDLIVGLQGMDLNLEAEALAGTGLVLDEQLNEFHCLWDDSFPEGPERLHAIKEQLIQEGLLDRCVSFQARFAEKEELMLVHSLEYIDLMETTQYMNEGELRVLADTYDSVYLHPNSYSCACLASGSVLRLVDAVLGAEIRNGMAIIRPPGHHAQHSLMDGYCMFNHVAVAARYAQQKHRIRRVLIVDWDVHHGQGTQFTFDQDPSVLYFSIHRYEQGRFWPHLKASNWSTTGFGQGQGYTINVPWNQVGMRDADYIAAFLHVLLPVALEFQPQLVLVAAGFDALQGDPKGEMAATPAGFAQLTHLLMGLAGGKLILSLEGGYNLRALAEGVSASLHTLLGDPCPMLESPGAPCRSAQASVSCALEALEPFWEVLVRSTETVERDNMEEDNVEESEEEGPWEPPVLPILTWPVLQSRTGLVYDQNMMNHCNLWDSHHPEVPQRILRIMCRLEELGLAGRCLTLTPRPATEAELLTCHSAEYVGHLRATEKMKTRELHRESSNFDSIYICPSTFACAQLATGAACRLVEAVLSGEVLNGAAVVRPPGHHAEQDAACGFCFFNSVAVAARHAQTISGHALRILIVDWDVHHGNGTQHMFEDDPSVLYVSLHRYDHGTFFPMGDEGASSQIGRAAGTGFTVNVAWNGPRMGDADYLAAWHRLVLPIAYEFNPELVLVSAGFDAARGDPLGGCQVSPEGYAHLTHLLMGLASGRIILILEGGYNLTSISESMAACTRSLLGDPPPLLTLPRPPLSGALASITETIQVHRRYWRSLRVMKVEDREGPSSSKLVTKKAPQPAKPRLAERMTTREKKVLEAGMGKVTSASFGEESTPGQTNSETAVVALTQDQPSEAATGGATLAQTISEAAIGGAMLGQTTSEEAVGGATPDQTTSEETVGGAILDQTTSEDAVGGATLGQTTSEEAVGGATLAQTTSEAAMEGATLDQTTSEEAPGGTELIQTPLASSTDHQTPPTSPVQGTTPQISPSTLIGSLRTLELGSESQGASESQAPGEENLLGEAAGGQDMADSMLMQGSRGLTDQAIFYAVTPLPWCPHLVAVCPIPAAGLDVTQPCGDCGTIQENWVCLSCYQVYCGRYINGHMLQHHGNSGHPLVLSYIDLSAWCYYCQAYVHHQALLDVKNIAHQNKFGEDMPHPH
The experiment in a line: In vitro histone deacetylase assay: enzymatic HDAC6 assay by electrophoretic mobility shift. The note with it: full length human recombinant HDAC6 1 nM, 2 μM peptide substrate RHKK(Ac)-NH2, 25° C., 12 concentrations; read-out: Inhibitory Concentration (IC50) against HDAC6, Activity Range. The class given is biochemical. On the procedure:
The enzymatic HDAC6 assay was performed using electrophoretic mobility shift assay. […] The enzymatic reactions were assembled in 384-well plates in a total volume of 25 μL of a reaction buffer comprising. 100 mM HEPES, pH 7.5, 25 mM KCl, 0.1% bovine serum albumin, 0.01% Triton X-100, 1% DMSO (from compounds), 2 μM of the fluorescently labeled peptide substrate, and enzyme. The enzyme was added at a final concentration of 1 nM. The peptide substrate RHKK(Ac)-NH2 was used. The compounds were tested at 12 concentrations spaced by 3× dilution intervals. Negative control samples (0%-inhibition in the absence of inhibitor) and positive control samples (100%-inhibition) were assembled in replicates of four in each assay plate. The reactions were incubated at 25° C. and quenched by the addition of 45 μL of termination buffer (100 mM HEPES, pH 7.5, 0.01% Triton X-100, 0.05% SDS).
The terminated assay plates were analyzed on LabChip® 3000 microfluidic electrophoresis instrument (Perkin Elmer/Caliper Life Sciences). The fluorescence intensity of the electrophoretically separated de-acetylated product and substrate peptide was measured. Activity in each sample was determined as the product to sum ratio (PSR):P/(S+P), where P is the peak height of the product peptide and S is the peak height of the substrate peptide. Percent inhibition (Pinh) is determined using the following equation:
Pinh=(PSR0%−PSRinh)/(PSR0%−PSR100%)*100, where PSRinh is the product sum ratio in the presence of inhibitor, PSR0% is the average product sum ration in the absence of inhibitor, and PSR100% is the average product sum ratio in 100%-inhibition control samples. The IC50 values of inhibitors were determined by fitting the %-inhibition curves with 4 parameter dose-response models using XLfit 4 software.
Consider `CC(C)(C)C(=O)N1Cc2ccc(C(=O)NO)cc2OC[C@@H]1c1ccccc1` [(S)-N-hydroxy-3-phenyl-4-pivaloyl-2,3,4,5-tetrahydrobenzo[f][1,4]oxazepine-8-carboxamide], for which the IC50 is at most 100 nM.

Take `COC1(C(=O)N2Cc3ccc(C(=O)NO)cc3OC[C@@H]2c2ccccc2)CCCCC1` [(S)-N-hydroxy-4-(1-methoxycyclohexane-1-carbonyl)-3-phenyl-2,3,4,5-tetrahydrobenzo[f][1,4]oxazepine-8-carboxamide]: the IC50 is at most 100 nM.

Take `COC1(C(=O)N2Cc3ccc(C(=O)NO)cc3OC[C@@H]2c2ccccc2)CC1` [(S)-N-hydroxy-4-(1-methoxycyclopropane-1-carbonyl)-3-phenyl-2,3,4,5-tetrahydrobenzo[f][1,4]oxazepine-8-carboxamide]: the IC50 was at most 100 nM.

Turning to `CN1CCC(C(=O)N2Cc3ccc(C(=O)NO)cc3OC[C@@H]2c2ccccc2)CC1` [(S)-N-hydroxy-4-(1-methylpiperidine-4-carbonyl)-3-phenyl-2,3,4,5-tetrahydrobenzo[f][1,4]oxazepine-8-carboxamide], the IC50 was at most 100 nM.

In the case of `COC(C)(C)C(=O)N1Cc2ccc(C(=O)NO)cc2OC[C@@H]1c1ccccc1` [(S)-N-hydroxy-4-(2-methoxy-2-methylpropanoyl)-3-phenyl-2,3,4,5-tetrahydrobenzo[f][1,4]oxazepine-8-carboxamide], the IC50 was at most 100 nM.

As for `CC1(C(=O)N2Cc3ccc(C(=O)NO)cc3OC[C@@H]2c2ccccc2)CCOCC1` [(S)-N-hydroxy-4-(4-methyltetrahydro-2H-pyran-4-carbonyl)-3-phenyl-2,3,4,5-tetrahydrobenzo[f][1,4]oxazepine-8-carboxamide], the IC50 was at most 100 nM.

`CO[C@H]1CC[C@H](C(=O)N2Cc3ccc(C(=O)NO)cc3OC[C@@H]2c2ccccc2)CC1` [(S)-N-hydroxy-4-((1r,4S)-4-methoxycyclohexane-1-carbonyl)-3-phenyl-2,3,4,5-tetrahydrobenzo[f][1,4]oxazepine-8-carboxamide]: the IC50 was at most 100 nM.

In the case of `CO[C@H]1CC[C@@H](C(=O)N2Cc3ccc(C(=O)NO)cc3OC[C@@H]2c2ccccc2)CC1` [(S)-N-hydroxy-4-((1s,4R)-4-methoxycyclohexane-1-carbonyl)-3-phenyl-2,3,4,5-tetrahydrobenzo[f][1,4]oxazepine-8-carboxamide], the IC50 is at most 100 nM.

As for `O=C(NO)c1ccc2c(c1)OC[C@H](c1ccccc1)N(C(=O)C1COC1)C2` [(S)-N-hydroxy-4-(oxetane-3-carbonyl)-3-phenyl-2,3,4,5-tetrahydrobenzo[f][1,4]oxazepine-8-carboxamide], the IC50 is at most 100 nM. The figure for `O=C(NO)c1ccc2c(c1)OC[C@H](c1ccc(C(F)(F)F)cc1)N(C(=O)C1CCOCC1)C2` [(S)-N-hydroxy-4-(tetrahydro-2H-pyran-4-carbonyl)-3-(4-(trifluoromethyl)phenyl)-2,3,4,5-tetrahydrobenzo[f][1,4]oxazepine-8-carboxamide] is at most 100 nM; for `Cc1ccccc1[C@H]1COc2cc(C(=O)NO)ccc2CN1C(=O)C1CCOCC1` [(S)-N-hydroxy-4-(tetrahydro-2H-pyran-4-carbonyl)-3-(o-tolyl)-2,3,4,5-tetrahydrobenzo[f][1,4]oxazepine-8-carboxamide] it is at most 100 nM.

Turning to `Cc1ccc([C@H]2COc3cc(C(=O)NO)ccc3CN2C(=O)C2CCOCC2)cc1` [(S)-N-hydroxy-4-(tetrahydro-2H-pyran-4-carbonyl)-3-(p-tolyl)-2,3,4,5-tetrahydrobenzo[f][1,4]oxazepine-8-carboxamide], the IC50 is at most 100 nM. Next, `CC(C)C(=O)N1Cc2ccc(C(=O)NO)cc2OC[C@@H]1c1ccccc1` [(S)-N-hydroxy-4-isobutyryl-3-phenyl-2,3,4,5-tetrahydrobenzo[f][1,4]oxazepine-8-carboxamide]: at most 100 nM; `O=C(NO)c1ccc2c(c1)OC[C@H](c1ccccc1)N(C(=O)c1ccncc1)C2` [(S)-N-hydroxy-4-isonicotinoyl-3-phenyl-2,3,4,5-tetrahydrobenzo[f][1,4]oxazepine-8-carboxamide]: at most 100 nM; `O=C(NO)c1ccc2c(c1)OC[C@H](c1ccccc1)N(C(=O)c1cccnc1)C2` [(S)-N-hydroxy-4-nicotinoyl-3-phenyl-2,3,4,5-tetrahydrobenzo[f][1,4]oxazepine-8-carboxamide]: at most 100 nM. For the compound `COCC1(C(=O)N2Cc3ccc(C(=O)NO)cc3OC[C@@H]2c2ccccc2)CC1` [(S)—N-hydroxy-4-(1-(methoxymethyl)cyclopropane-1-carbonyl)-3-phenyl-2,3,4,5-tetrahydrobenzo[f][1,4]oxazepine-8-carboxamide], the IC50 was at most 100 nM.
